PMC11124940, “Sweeteners Show a Plasticizing Effect on PVP K30—A Solution for the Hot-Melt Extrusion of Fixed-Dose Amorphous Curcumin-Hesperetin Solid Dispersions” (Pharmaceutics, 2024)
Values after ≈ are worked out from the molar mass of the structure shown. Read-outs that look alike come from different tables or passages of the source.

Key:
[1] = Apparent solubility study (24 h, 25 °C, HPLC); assay type: physicochemical
Method: (§1) The injection volume differed depending on the assay. […] The duration of the run was 10 min.
Phosphate buffer at pH 6.8 was prepared as follows: 250 mL of 0.2 N potassium dihydrogen phosphate solution was placed in a 1000 mL volumetric flask, and then 112 mL of 0.2 N sodium hydroxide solution was added. The volume was made up to 1000 mL with purified water. Hydrochloric acid solution pH 1.2 was prepared from the analytically weighed amount following the manufacturer’s (Alfachem, Poznań, Poland) recommendations.
An excess amount of powder (corresponding to 6 mg of each active substance) was placed in a 10 mL glass tube. Then, 2.0 mL of phosphate buffer (pH 6.8) or HCl solution (pH 1.2) was added and stirred at 100 rpm at room temperature (25 ± 0.1 °C) for 24 h.

[2] = PAMPA GIT permeability assay; assay type: in vitro ADME; settings: GIT model, donor pH ≈6.8, 4 h, 37 °C
Method: as §1

[3] = PAMPA, 4 h, pH 7.4
Method: Concentrations of curcumin and hesperetin in samples collected during solubility, dissolution, and permeability studies were determined using HPLC with the DAD detector (HPLC-DAD). Shimadzu Nexera (Shimadzu Corp., Kyoto, Japan) equipped with an SCL-40 system controller, a DGU-403 degassing unit, an LC-40B XR solvent delivery module, a SIL-40C autosampler, a CTO-40C column oven, and an SPD-M40 photodiode array detector were employed in this investigation. For the stationary phase, a Dr. Maisch ReproSil-Pur Basic-C18 100 Å column with 5 µm particle size and 250 × 4.60 mm (Dr. Maisch, Ammerbuch-Entringen, Germany) was used. The mobile phase was HPLC-grade methanol:0.1% acetic acid (80:20 v/v). The mobile phase was vacuum filtered through a 0.45 µm nylon filter (Phenomenex, Torrance, CA, USA). The experimental conditions were as follows: a 1.0 mL/min flow rate, a wavelength of 420 nm for curcumin and 288 nm for hesperetin, and a column temperature of 30 °C. The injection volume differed depending on the assay. For the solubility study, it was 2 µL, whereas for the dissolution and permeability assays, it was 10 µL. […]
In vitro, gastrointestinal (GIT) and blood–brain barrier (BBB) permeability was studied using the Parallel Artificial Membrane Permeability Assay (PAMPA) models. […] The results are expressed as a concentration of the compound in the acceptor solution.

SMILES	solubility at 24 h ([1]; HCl solution, pH 1.2 HCl, read-out: Curcumin Concentration (apparent solubility))	solubility at 24 h ([1]; aqueous buffer, thermodynamic from solid, pH 6.8 phosphate buffer, read-out: Curcumin Concentration (apparent solubility))	Curcumin Concentration in the acceptor solution [2]	Curcumin Concentration in the acceptor solution [3]	solubility at 24 h ([1]; HCl solution, simulated gastric fluid, thermodynamic from solid, pH 1.2 HCl, read-out: Hesperetin Concentration (apparent solubility))	solubility at 24 h ([1]; aqueous buffer, thermodynamic from solid, pH 6.8 phosphate buffer, read-out: Hesperetin Concentration (apparent solubility))	Hesperetin Concentration in the acceptor solution [2]	Hesperetin Concentration in the acceptor solution [3]
COc1cc(/C=C/C(=O)CC(=O)/C=C/c2ccc(O)c(OC)c2)ccc1O [Curcumin]	0.1 ± 0.01 µg/mL (≈ 0.271 µM)	0.14 ± 0.02 µg/mL (≈ 0.38 µM)	3.34 × 10^−6 ± 1.94 × 10^−6 c mg/mL	1.86 × 10^−5 ± 2.48 × 10^−6 c mg/mL	–	–	–	–
COc1ccc([C@@H]2CC(=O)c3c(O)cc(O)cc3O2)cc1O [Hesperetin]	–	–	–	–	4 ± 1 µg/mL (≈ 13.2 µM)	5 ± 1 µg/mL (≈ 16.5 µM)	2.58 × 10^−5 ± 6.16 × 10^−6 c mg/mL	3.89 × 10^−5 ± 1.66 × 10^−5 c mg/mL
